# Patent US11274332B2, “Methods of administering 3,4-diaminopyridine” (SERB SA, priority 2011, dated 2022)
# Experiment: Food-effect crossover study, adverse events after single 20 mg amifampridine phosphate in healthy subjects (Examples 10, 11)
# Format: in vivo
# Description: This was a randomized, open-label, 2-treatment, 2-period crossover study with 44 completed subjects to assess the safety, tolerability, and the effect of food on the relative bioavailability of a single dose of amifampridine phosphate.
# Safety was evaluated for all subjects who take at least one dose of 3,4-DAP. Safety was evaluated by recording the incidence of adverse events (AEs), physical examination, vital signs, concomitant medications, clinical laboratory assessments, and 12-lead electrocardiogram (ECG).
# Analysis for the following safety parameters was carried out on the Safety Population: AEs which included all AEs, AEs by severity, drug-related AEs, deaths, SAEs, AEs leading to study discontinuation, and most frequent AEs, standard clinical laboratory tests, vital signs, ECG measurements, routine physical examinations, and prior and concomitant medications. The cut-off for frequency of AEs reported was determined based on the data. No formal statistical testing was performed for the safety analyses; only descriptive statistics were provided. Appropriate descriptive statistics for the safety data were determined using SAS Version 9.2.
# AEs were coded according to the Medical Dictionary for Regulatory Activities (MedDRA; Version 13.0). […] The occurrence of AEs was assessed continuously from the time the subject signed the VID and consent. The reporting period for non-serious AEs was from the first dose to the final study visit. The investigator determined the severity of each event and the relationship of an AE to the IP and recorded it on the source documents and AE CRF. The nature, time of onset, duration, severity, and relationship to study drug was documented, including documentation of investigator assessment and review. All events were assessed to determine if the AE was serious.
# The Investigator determined the severity of each event and the event was recorded on the source documents and AE CRF. A coding of “mild” meant there was no limitation of usual activities, “moderate” meant there was some limitation of usual activities, “severe” meant there was an inability to carry out usual activities.
# The reporting period for AEs that met the criteria of an SAE began from the time of signing the VID and consent form through follow-up or early termination. […] Clinical Laboratory Assessments
compound,measurement,setting,value
"Nc1ccncc1N.O=P(O)(O)O [amifampridine phosphate, 3,4-diaminopyridine phosphate]","General Disorders and Administration Site Conditions Total, drug-related AE: events",Female N=16,2
same,"General Disorders and Administration Site Conditions Total, drug-related AE: subjects",Female N=16,2
same,"Headache, drug-related AE: % of subjects",Female N=16,19%
same,"Headache, drug-related AE: events",Female N=16,3
same,"Headache, drug-related AE: subjects",Female N=16,3
same,"Hypoaesthesia Facial, drug-related AE: % of subjects",Female N=16,(0%) [0]
same,"Hypoaesthesia Facial, drug-related AE: events",Female N=16,(0%) [0]
same,"Hypoaesthesia Facial, drug-related AE: subjects",Female N=16,0
same,"Hypoaesthesia Oral, drug-related AE: % of subjects",Female N=16,6%
same,"Hypoaesthesia Oral, drug-related AE: events",Female N=16,1
same,"Hypoaesthesia Oral, drug-related AE: subjects",Female N=16,1
same,"Hypoaesthesia, drug-related AE: % of subjects",Female N=16,6%
same,"Hypoaesthesia, drug-related AE: events",Female N=16,1
same,"Hypoaesthesia, drug-related AE: subjects",Female N=16,1
same,"Nausea, drug-related AE: % of subjects",Female N=16,13%
same,"Nausea, drug-related AE: events",Female N=16,2
same,"Nausea, drug-related AE: subjects",Female N=16,2
same,"Nervous System Disorders Total, drug-related AE: % of subjects",Female N=16,63%
same,"Nervous System Disorders Total, drug-related AE: events",Female N=16,31
same,"Nervous System Disorders Total, drug-related AE: subjects",Female N=16,10
same,"Paraesthesia Oral, drug-related AE: % of subjects",Female N=16,44%
same,"Paraesthesia Oral, drug-related AE: events",Female N=16,12
same,"Paraesthesia Oral, drug-related AE: subjects",Female N=16,7
same,"Paraesthesia, drug-related AE: % of subjects",Female N=16,38%
same,"Paraesthesia, drug-related AE: events",Female N=16,9
same,"Paraesthesia, drug-related AE: subjects",Female N=16,6
same,"Possibly or probably related AEs, Mild: % of subjects",Female N=16,75%
same,"Possibly or probably related AEs, Mild: events",Female N=16,41
same,"Possibly or probably related AEs, Mild: subjects",Female N=16,12
same,"Possibly or probably related AEs, Moderate: % of subjects",Female N=16,6%
same,"Possibly or probably related AEs, Moderate: events",Female N=16,1
same,"Possibly or probably related AEs, Moderate: subjects",Female N=16,1
same,"Possibly or probably related AEs, Severe: % of subjects",Female N=16,(0%) [0]
same,"Possibly or probably related AEs, Severe: events",Female N=16,(0%) [0]
same,"Possibly or probably related AEs, Severe: subjects",Female N=16,0
same,"Possibly or probably related AEs, Total: % of subjects",Female N=16,75%
same,"Possibly or probably related AEs, Total: events",Female N=16,42
same,"Possibly or probably related AEs, Total: subjects",Female N=16,12
same,Serious adverse events: % of subjects,Female N=16,(0%) [0]
same,Serious adverse events: events,Female N=16,(0%) [0]
same,Serious adverse events: subjects,Female N=16,0
same,"Skin and Subcutaneous Tissue Disorders Total, drug-related AE: % of subjects",Female N=16,(0%) [0]
same,"Skin and Subcutaneous Tissue Disorders Total, drug-related AE: events",Female N=16,(0%) [0]
same,"Skin and Subcutaneous Tissue Disorders Total, drug-related AE: subjects",Female N=16,0
same,"Vascular Disorders Total, drug-related AE: % of subjects",Female N=16,6%
same,"Vascular Disorders Total, drug-related AE: events",Female N=16,1
same,"Vascular Disorders Total, drug-related AE: subjects",Female N=16,1
same,"Abdominal Pain Upper, drug-related AE: % of subjects",Male N=31,3%
same,"Abdominal Pain Upper, drug-related AE: events",Male N=31,1
same,"Abdominal Pain Upper, drug-related AE: subjects",Male N=31,1
same,"Abdominal Pain, drug-related AE: % of subjects",Male N=31,3%
same,"Abdominal Pain, drug-related AE: events",Male N=31,1
same,"Abdominal Pain, drug-related AE: subjects",Male N=31,1
same,"Abdominal Tenderness, drug-related AE: % of subjects",Male N=31,(0%) [0]
same,"Abdominal Tenderness, drug-related AE: events",Male N=31,(0%) [0]
same,"Abdominal Tenderness, drug-related AE: subjects",Male N=31,0
same,"Acne, drug-related AE: % of subjects",Male N=31,3%
same,"Acne, drug-related AE: events",Male N=31,1
same,"Acne, drug-related AE: subjects",Male N=31,1
same,"All treatment emergent AEs, Mild: % of subjects",Male N=31,58%
same,"All treatment emergent AEs, Mild: events",Male N=31,57
same,"All treatment emergent AEs, Mild: subjects",Male N=31,18
same,"All treatment emergent AEs, Moderate: % of subjects",Male N=31,(0%) [0]
same,"All treatment emergent AEs, Moderate: events",Male N=31,(0%) [0]
same,"All treatment emergent AEs, Moderate: subjects",Male N=31,0
same,"All treatment emergent AEs, Severe: % of subjects",Male N=31,3%
same,"All treatment emergent AEs, Severe: events",Male N=31,1
same,"All treatment emergent AEs, Severe: subjects",Male N=31,1
same,"All treatment emergent AEs, Total: events",Male N=31,58
same,"All treatment emergent AEs, Total: subjects",Male N=31,19
same,"Constipation, drug-related AE: % of subjects",Male N=31,(0%) [0]
same,"Constipation, drug-related AE: events",Male N=31,(0%) [0]
same,"Constipation, drug-related AE: subjects",Male N=31,0
same,"Diarrhoea, drug-related AE: % of subjects",Male N=31,(0%) [0]
same,"Diarrhoea, drug-related AE: events",Male N=31,(0%) [0]
same,"Diarrhoea, drug-related AE: subjects",Male N=31,0
same,Discontinued due to adverse events: % of subjects,Male N=31,3%
same,Discontinued due to adverse events: events,Male N=31,1
same,Discontinued due to adverse events: subjects,Male N=31,1
same,"Dizziness, drug-related AE: % of subjects",Male N=31,3%
same,"Dizziness, drug-related AE: events",Male N=31,2
same,"Dizziness, drug-related AE: subjects",Male N=31,1
same,"Dysgeusia, drug-related AE: % of subjects",Male N=31,6%
same,"Dysgeusia, drug-related AE: events",Male N=31,3
same,"Dysgeusia, drug-related AE: subjects",Male N=31,2
same,"Fatigue, drug-related AE: % of subjects",Male N=31,6%
same,"Fatigue, drug-related AE: events",Male N=31,2
same,"Fatigue, drug-related AE: subjects",Male N=31,2
same,"Feeling Hot, drug-related AE: % of subjects",Male N=31,3%
same,"Feeling Hot, drug-related AE: events",Male N=31,1
same,"Feeling Hot, drug-related AE: subjects",Male N=31,1
same,"Flushing, drug-related AE: % of subjects",Male N=31,(0%) [0]
same,"Flushing, drug-related AE: events",Male N=31,(0%) [0]
same,"Flushing, drug-related AE: subjects",Male N=31,0
same,"Gastrointestinal Disorders Total, drug-related AE: % of subjects",Male N=31,13%
same,"Gastrointestinal Disorders Total, drug-related AE: events",Male N=31,4
same,"Gastrointestinal Disorders Total, drug-related AE: subjects",Male N=31,4
same,"General Disorders and Administration Site Conditions Total, drug-related AE: % of subjects",Male N=31,10%
same,"General Disorders and Administration Site Conditions Total, drug-related AE: events",Male N=31,3
same,"General Disorders and Administration Site Conditions Total, drug-related AE: subjects",Male N=31,3
same,"Headache, drug-related AE: % of subjects",Male N=31,6%
same,"Headache, drug-related AE: events",Male N=31,2
same,"Headache, drug-related AE: subjects",Male N=31,2
same,"Hypoaesthesia Facial, drug-related AE: % of subjects",Male N=31,3%
same,"Hypoaesthesia Facial, drug-related AE: events",Male N=31,1
same,"Hypoaesthesia Facial, drug-related AE: subjects",Male N=31,1
same,"Hypoaesthesia Oral, drug-related AE: % of subjects",Male N=31,13%
same,"Hypoaesthesia Oral, drug-related AE: events",Male N=31,5
same,"Hypoaesthesia Oral, drug-related AE: subjects",Male N=31,4
same,"Hypoaesthesia, drug-related AE: % of subjects",Male N=31,3%
same,"Hypoaesthesia, drug-related AE: events",Male N=31,1
same,"Hypoaesthesia, drug-related AE: subjects",Male N=31,1
same,"Nausea, drug-related AE: % of subjects",Male N=31,6%
same,"Nausea, drug-related AE: events",Male N=31,2
same,"Nausea, drug-related AE: subjects",Male N=31,2
same,"Nervous System Disorders Total, drug-related AE: % of subjects",Male N=31,55%
same,"Nervous System Disorders Total, drug-related AE: events",Male N=31,43
same,"Nervous System Disorders Total, drug-related AE: subjects",Male N=31,17
same,"Paraesthesia Oral, drug-related AE: % of subjects",Male N=31,42%
same,"Paraesthesia Oral, drug-related AE: events",Male N=31,18
same,"Paraesthesia Oral, drug-related AE: subjects",Male N=31,13
same,"Paraesthesia, drug-related AE: % of subjects",Male N=31,19%
same,"Paraesthesia, drug-related AE: events",Male N=31,11
